What all share (format): functional
The subject of assay [1] is Bacteroides fragilis. Put plainly: Antimicrobial activity against Bacteroides fragilis by agar dilution method in presence of 5% laked sheep blood. (In agar dilution the substance is mixed into plates at graded concentrations.)
For assay [2], the system named is Prevotella intermedia. Put plainly: Antimicrobial activity against Prevotella intermedia by agar dilution method in presence of 5% laked sheep blood.
Assay [3] deals with Porphyromonas uenonis. Nature of the assay: Antimicrobial activity against Porphyromonas uenonis by agar dilution method in presence of 5% laked sheep blood.
The subject of assay [4] is Fusobacterium mortiferum. Put plainly: Antimicrobial activity against Fusobacterium mortiferum by agar dilution method in presence of 5% laked sheep blood.
Assay [5] relates to Eggerthella lenta. Nature of the assay: Antimicrobial activity against Eggerthella lenta by agar dilution method in presence of 5% laked sheep blood.
Assay [6] deals with Clostridioides difficile. Put plainly: Antimicrobial activity against Clostridium difficile by agar dilution method in presence of 5% laked sheep blood.
The subject of assay [7] is Clostridium perfringens. Nature of the assay: Antimicrobial activity against Clostridium perfringens by agar dilution method in presence of 5% laked sheep blood.

Usually MIC50 stands for an inhibitory concentration at the 50% level, which refers to growth in some studies and to a panel of isolates in others. What is called MIC90 is the lowest concentration that inhibits either 90% of growth or 90% of the strains tested, depending on the study. Consider `CC(=N)N1CC[C@H](SC2=C(C(=O)O)N3C(=O)[C@H]([C@@H](C)O)[C@H]3C2)C1`, for which the MIC50 in assay [1] was 0.25 µg/mL; in assay [2] it was 0.06 µg/mL; in assay [3] it was 0.06 µg/mL; in assay [4], 0.125 µg/mL; in assay [5] it was 1 µg/mL; in assay [6] it was 4 µg/mL. For the same molecule, in assay [7], the MIC50 amounted to 0.03 µg/mL. Besides, the MIC90 was found to be 8 µg/mL in assay [1]; 0.25 µg/mL in assay [2]; 0.06 µg/mL in assay [3]; 2 µg/mL in assay [4]; 2 µg/mL in assay [5]; 8 µg/mL in assay [6]. Moreover, the MIC90 in assay [7] stood at 0.06 µg/mL.

On to `C[C@@H](O)[C@H]1C(=O)N2C(C(=O)O)=C(S[C@@H]3CN[C@H](CNS(N)(=O)=O)C3)[C@H](C)[C@H]12` [DORIPENEM], for which the MIC50 in assay [1] is 0.25 µg/mL; in assay [2], 0.06 µg/mL; in assay [3] it was 0.03 µg/mL; in assay [4] it was 0.03 µg/mL; in assay [5], 0.25 µg/mL; in assay [6] it was 2 µg/mL. Also, the MIC50 in assay [7] stood at 0.03 µg/mL. For the same molecule, the MIC90 in assay [1] came out at 0.5 µg/mL; in assay [2], 0.125 µg/mL; in assay [3], 0.06 µg/mL; in assay [4] it was 0.25 µg/mL; in assay [5], 0.25 µg/mL; in assay [6] it was 4 µg/mL. The MIC90 in assay [7] came out at 0.06 µg/mL.

In the case of `C[C@@H](O)[C@H]1C(=O)N2C(C(=O)O)=C(S[C@@H]3CN[C@H](C(=O)N(C)C)C3)[C@H](C)[C@H]12` [MEROPENEM], the MIC50 in assay [1] was 0.25 µg/mL; in assay [2] it was 0.06 µg/mL; in assay [3] it was not above 0.015 µg/mL; in assay [4], 0.03 µg/mL; in assay [5], 0.5 µg/mL; in assay [6], 2 µg/mL. In addition, the MIC50 in assay [7] is not above 0.015 µg/mL. Besides, the MIC90 in assay [1] turned out to be 0.5 µg/mL; in assay [2] it was 0.125 µg/mL; in assay [3], 0.03 µg/mL; in assay [4], 0.125 µg/mL; in assay [5], 1 µg/mL; in assay [6], 4 µg/mL. Further, the MIC90 in assay [7] amounted to 0.03 µg/mL.

On to `Cc1ncc([N+](=O)[O-])n1CCO` [METRONIDAZOLE], for which the MIC50 in assay [1] is 0.5 µg/mL; in assay [2], 0.5 µg/mL; in assay [3] it was 0.06 µg/mL; in assay [4] it was not above 0.015 µg/mL; in assay [5], 0.5 µg/mL; in assay [6], 1 µg/mL. In assay [7], the MIC50 is 1 µg/mL. Also, the MIC90 came to 1 µg/mL in assay [1]; 0.5 µg/mL in assay [2]; 0.25 µg/mL in assay [3]; 0.5 µg/mL in assay [4]; 0.5 µg/mL in assay [5]; 1 µg/mL in assay [6]. In addition, the MIC90 in assay [7] is 2 µg/mL.

As to `C[C@@H](O)[C@H]1C(=O)N2C(C(=O)O)=C(S[C@H]3C[C@@H](C(=O)N4CC[C@H](NC(=O)CNC(=N)N)C4)N(C)C3)[C@H](C)[C@H]12` [TOMOPENEM], the MIC50 is 0.25 µg/mL in assay [1]; 0.06 µg/mL in assay [2]; 0.03 µg/mL in assay [3]; not above 0.015 µg/mL in assay [4]; 0.5 µg/mL in assay [5]; 1 µg/mL in assay [6]. Further, in assay [7], the MIC50 is not above 0.015 µg/mL. For the same molecule, the MIC90 in assay [1] was 1 µg/mL; in assay [2], 0.125 µg/mL; in assay [3] it was 0.06 µg/mL; in assay [4] it was 0.5 µg/mL; in assay [5], 0.5 µg/mL; in assay [6], 2 µg/mL. The MIC90 in assay [7] came to 0.06 µg/mL.

The values above are taken from ChEMBL document CHEMBL1275576, “In vitro activity of tomopenem (CS-023/RO4908463) against anaerobic bacteria” (Antimicrob Agents Chemother, 2009).
